The values that follow come from US7973047B2, “Beta-Secretase modulators and methods of use” (Amgen Inc., priority 2010, dated 2011).

Some results are limits rather than exact numbers.

The subject of one assay is Aβ40 in conditioned medium of cells stably expressing Amyloid Precursor Protein (APP). Description: BACE cell-based assay: Aβ40 in conditioned medium by sandwich ELISA. Particulars: cell based assay data of Table 4; unit inferred; read-out: Cell Assay. The method, then:
The cell-based assay measures inhibition or reduction of Aβ40 in conditioned medium of test compound treated cells expressing amyloid precursor protein.
Cells stably expressing Amyloid Precursor Protein (APP) were plated at a density of 40K cells/well in 96 well plates (Costar). The cells were cultivated for 24 hours at 37° C. and 5% CO2 in DMEM supplemented with 10% FBS. The test compounds were then added to cells in 10-point dose response concentrations with the starting concentration being either 100 μM or 10 μM. The compounds were diluted from stock solutions in DMSO and the final DMSO concentration of the test compounds on cells was 0.1%. After 24 h of incubation with the test compounds the supernatant conditioned media was collected and the Aβ40 levels were determined using a sandwich ELISA. The ICso of the compound was calculated from the percent of control or percent inhibition of Aβ40 as a function of the concentration of the test compound.
The sandwich ELISA to detect Aβ40 was performed in 96 well microtiter plates, which were pre-treated with goat anti-rabbit IgG (Pierce). The capture and detecting antibody pair that were used to detect Aβ40 from cell supernatants were affinity purified pAb40 (Biosource) and biotinylated 6E10 (Signet Labs Inc.), respectively. The optimal concentration for the pAb40 antibody was 3 μg/ml in Superblock/TBS (Pierce) that was supplemented with 0.05% Tween 20 (Sigma).
Cellular supernatants were incubated with the capture antibody for 3 h at 4° C., followed by 3 wash steps in TBS-tween (0.05%). The detecting antibody incubation was for 2 h at 4° C., again followed by the wash steps as described previously. The final readout of the ELISA is Time-Resolved Fluorescence (counts per minute) using Delfia reagents Streptavidin-Europium and Enhancement solutions (Perkin Elmer) and the Victor 2 multilabel counter (Perkin Elmer).
With `CC(=O)N[C@@H](Cc1cc(F)cc(F)c1)[C@H](O)CN[C@H]1CC2(CCC2)Oc2ccc(-c3cn(C)nn3)cc21` [compound 520], the IC50 was 2.16 µM.
Take `CC(=O)N[C@@H](Cc1ccccc1)[C@H](O)CN[C@H]1CC2(CCC2)Oc2ccc(-c3cn(C)nn3)cc21` [compound 521]: the IC50 is not below 10 µM.
For `CC(=O)N[C@@H](Cc1ccccc1)[C@H](O)CN[C@H]1CC2(CCC2)Oc2ncc(CC(C)C)cc21` [compound 523], the IC50 came to 0.00409 µM.
Still for that read-out and setting: next, `CC(=O)N[C@@H](Cc1cccc(C#N)c1)[C@H](O)CN[C@H]1CC2(CCC2)Oc2ncc(CC(C)(C)F)cc21` [compound 524]: 0.00242 µM; `CC(=O)N[C@@H](Cc1cccc(F)c1)[C@H](O)CN[C@H]1CC2(CCC2)Oc2ncc(CC(C)(C)F)cc21` [compound 525]: 0.00394 µM.
Take `CC(=O)N[C@@H](Cc1cccc(C#N)c1)[C@H](O)CN[C@H]1CC(C)(C)Oc2ccc(Br)cc21` [compound 526]: the IC50 was 0.116 µM.
`COCC(=O)N[C@@H](Cc1cccc(C#N)c1)[C@H](O)CN[C@H]1CC(C)(C)Oc2ccc(Br)cc21` [compound 527]: the IC50 was 0.12 µM.
For the compound `CN(C)CC(=O)N[C@@H](Cc1cccc(C#N)c1)[C@H](O)CN[C@H]1CC(C)(C)Oc2ccc(Br)cc21` [compound 528], the IC50 was 1.12 µM.
For `CCc1cc(Br)c2c(c1)[C@@H](NC[C@@H](O)[C@H](Cc1cccc(C#N)c1)NC(C)=O)CC(C)(C)O2` [compound 529], the IC50 is 0.0339 µM.
On to `CCc1cc2c(c(N3CCOCC3)c1)OC(C)(C)C[C@@H]2NC[C@@H](O)[C@H](Cc1cccc(C#N)c1)NC(C)=O` [compound 532], for which the IC50 turned out to be 0.0112 µM.
With `CCc1cc(NC)c2c(c1)[C@@H](NC[C@@H](O)[C@H](Cc1ccccc1)NC(C)=O)CC(C)(C)O2` [compound 535], the IC50 was found to be 0.924 µM.
Consider `CC(=O)N[C@@H](Cc1ccc(F)cc1)[C@H](O)CN[C@H]1CC2(CCC2)Oc2c1cc(CC(C)(C)C)cc2N1CCOCC1` [compound 536], for which the IC50 was found to be 2.09 µM.
Regarding `CC(=O)N[C@@H](Cc1ccccc1)[C@H](O)CN[C@H]1CC2(CCC2)Oc2c1cc(CC(C)(C)C)cc2N1CCOCC1` [compound 537], the IC50 is 1.97 µM.
Take `CC(=O)N[C@@H](CC(C)C)[C@H](O)CN[C@H]1CC2(CCC2)Oc2ncc(CC(C)(C)C)cc21` [compound 538, N-((1S)-1-((1R)-2-(((4′S)-6′-(2,2-dimethylpropyl)-3′,4′-dihydrospiro[cyclobutane-1,2′-pyrano[2,3-b]pyridin]-4′-yl)amino)-1-hydroxyethyl)-3-methylbutyl)acetamide]: the IC50 is 0.177 µM.
Consider `C=C(C)C[C@H](NC(C)=O)[C@H](O)CN[C@H]1CC2(CCC2)Oc2ncc(CC(C)(C)C)cc21` [compound 539, N-((1S)-1-((1R)-2-(((4′S)-6′-(2,2-dimethylpropyl)-3′,4′-dihydrospiro[cyclobutane-1,2′-pyrano[2,3-b]pyridin]-4′-yl)amino)-1-hydroxyethyl)-3-methyl-3-buten-1-yl)acetamide], for which the IC50 came to 0.0503 µM.
Turning to `CC(=O)N[C@@H](Cc1cccc(C#N)c1)[C@H](O)CN[C@H]1CC2(CCC2)Oc2ncc(CC(C)(C)C)cc21` [compound 540, N-((1S,2R)-1-((3-cyanophenyl)methyl)-3-(((4′S)-6′-(2,2-dimethylpropyl)-3′,4′-dihydrospiro[cyclobutane-1,2′-pyrano[2,3-b]pyridin]-4′-yl)amino)-2-hydroxypropyl)acetamide], the IC50 was found to be 0.00203 µM.
As for `CC(=O)N[C@@H](Cc1ccccc1)[C@H](O)CN[C@H]1CC2(CCC2)Cc2ncc(C)cc21` [compound 541, N-((1S,2R)-2-hydroxy-3-(((5′S)-3′-methyl-5′,8′-dihydro-6′H-spiro[cyclobutane-1,7′-quinolin]-5′-yl)amino)-1-(phenylmethyl)propyl)acetamide], the IC50 was 0.651 µM.
On to `CC(=O)N[C@@H](Cc1cccc(C#N)c1)[C@H](O)CN[C@H]1CC2(CCC2)Cc2ncc(C)cc21` [compound 542, N-((1S,2R)-1-((3-cyanophenyl)methyl)-2-hydroxy-3-(((5′S)-3′-methyl-5′,8′-dihydro-6′H-spiro[cyclobutane-1,7′-quinolin]-5′-yl)amino)propyl)acetamide], for which the IC50 is 0.0646 µM.
On the same count and under the same terms, for `CC(=O)N[C@@H](Cc1cccc(C#N)c1)[C@H](O)CN[C@H]1CC(C)(C)Cc2ncc(C)cc21` [compound 543] the value was 0.124 µM; for `CC(=O)N[C@@H](Cc1cc(F)cc(F)c1)[C@H](O)CN[C@H]1CC2(CCC2)Oc2ccc(-c3ncco3)cc21` [compound 544], 0.631 µM; for `CC(=O)N[C@@H](Cc1ccccc1)[C@H](O)CN[C@H]1CC(C)(C)Oc2ncc(CC(C)(C)C)cc21` [compound 545], 0.00461 µM.
Consider `CC(=O)N[C@@H](Cc1cccc(F)c1)[C@H](O)CN[C@H]1CC(C)(C)Oc2ncc(CC(C)(C)C)cc21` [compound 546], for which the IC50 amounted to 0.00167 µM.
As for `CC(=O)N[C@@H](Cc1ccc(F)cc1)[C@H](O)CN[C@H]1CC2(CCCC2)Oc2ncc(CC(C)(C)C)cc21` [compound 547], the IC50 came to 0.0348 µM.
The same measure, in the same setting: for `CC(=O)N[C@@H](Cc1cc(F)cc(F)c1)[C@H](O)CN[C@H]1CC2(CCCC2)Oc2ncc(CC(C)(C)C)cc21` [compound 548] the value was 0.00283 µM; for `CC(=O)N[C@@H](Cc1cccc(F)c1)[C@H](O)CN[C@H]1CC2(CCCC2)Oc2ncc(CC(C)(C)C)cc21` [compound 549], 0.00693 µM.
`CC(=O)N[C@@H](Cc1ccc(F)cc1)[C@H](O)CN[C@H]1CC2(CCC2)Oc2ncc([C@H](F)C(C)C)cc21` [compound 552, N-((1S,2R)-3-(((4′S)-6′-((1R)-1-fluoro-2-methylpropyl)-3′,4′-dihydrospiro[cyclobutane-1,2′-pyrano[2,3-b]pyridin]-4′-yl)amino)-1-((4-fluorophenyl)methyl)-2-hydroxypropyl)acetamide]: the IC50 was 1.26 µM.
As for `CC(=O)N[C@@H](Cc1ccc(F)cc1)[C@H](O)CN[C@H]1CC2(CCC2)Oc2ncc([C@@H](F)C(C)C)cc21` [compound 553], the IC50 was found to be 0.272 µM.
As to `CC(=O)N[C@@H](Cc1cccc(F)c1)[C@H](O)CN[C@H]1CC2(CCC2)Oc2ncc([C@@H](F)C(C)C)cc21` [compound 555], the IC50 is 1.43 µM.
Still for that read-out and setting: for `CC(=O)N[C@@H](Cc1ccc(F)cc1)[C@H](O)CN[C@H]1CC2(CCC2)Nc2ccc(CC(C)(C)C)cc21` [compound 559, N-((1S,2R)-3-(((4′S)-6′-(2,2-dimethylpropyl)-3′,4′-dihydro-1′H-spiro[cyclobutane-1,2′-quinolin]-4′-yl)amino)-1-((4-fluorophenyl)methyl)-2-hydroxypropyl)acetamide] the value was 0.105 µM; for `CC(=O)N[C@@H](Cc1cc(F)cc(F)c1)[C@H](O)CN[C@H]1CC2(CCC2)Nc2ccc(CC(C)(C)C)cc21` [compound 560, N-((1S,2R)-1-((3,5-difluorophenyl)methyl)-3-(((4′S)-6′-(2,2-dimethylpropyl)-3′,4′-dihydro-1′H-spiro[cyclobutane-1,2′-quinolin]-4′-yl)amino)-2-hydroxypropyl)acetamide], 0.0117 µM; for `CC(=O)N[C@@H](Cc1cccc(F)c1)[C@H](O)CN[C@H]1CC2(CCC2)Nc2ccc(CC(C)(C)C)cc21` [compound 561, N-((1S,2R)-3-(((4′S)-6′-(2,2-dimethylpropyl)-3′,4′-dihydro-1′H-spiro[cyclobutane-1,2′-quinolin]-4′-yl)amino)-1-((3-fluorophenyl)methyl)-2-hydroxypropyl)acetamide], 0.0294 µM.
For `CC(=O)N[C@@H](Cc1ccc(F)c(Br)c1)[C@H](O)CN[C@H]1CC2(CCC2)Nc2ccc(CC(C)(C)C)cc21` [compound 562, N-((1S,2R)-1-((3-bromo-4-fluorophenyl)methyl)-3-(((4′S)-6′-(2,2-dimethylpropyl)-3′,4′-dihydro-1′H-spiro[cyclobutane-1,2′-quinolin]-4′-yl)amino)-2-hydroxypropyl)acetamide], the IC50 is 0.141 µM.
Regarding `CC(=O)N[C@@H](Cc1ccc(F)cc1)[C@H](O)CN[C@H]1CC2(CCCC2)C(=O)c2ccc(CC(C)(C)C)cc21` [compound 563, N-((1S,2R)-3-(((4′S)-6′-(2,2-dimethylpropyl)-1′-oxo-3′,4′-dihydro-1′H-spiro[cyclopentane-1,2′-naphthalen]-4′-yl)amino)-1-((4-fluorophenyl)methyl)-2-hydroxypropyl)acetamide], the IC50 is not below 10 µM.

Staying with this assay, now noted: cells stably expressing APP, 24 h incubation with compound, Aβ40 in supernatant by sandwich ELISA; read-out: IC50 values in the cell-based assay (inhibition or reduction of Aβ40).
As for `CC(=O)N[C@@H](Cc1cc(F)cc(F)c1)[C@H](O)CN[C@H]1C[C@@]2(CCOC2)Oc2c(Br)cc(Cl)cc21` [Example 249], the IC50 is not above 5 µM.
Turning to `CCc1ccc2c(c1)[C@@H](NC[C@@H](O)[C@H](Cc1cccc(Br)c1)NC(=O)CCCCCCNC(=O)OCc1ccccc1)CC1(CCC1)O2` [Example 337], the IC50 was not above 5 µM.
As for `CC(=O)N[C@@H](Cc1ccccc1)[C@H](O)CN[C@H]1CC2(CCC2)Oc2ncc(C3CCCO3)cc21` (stereo partly drawn) [Example 384], the IC50 is not above 5 µM.
